Test results from US4749702A, “Antidepressive substituted N-[(4-piperidinyl)alkyl] bicyclic condensed oxazol- and thiazolamines” (Janssen Pharmaceutica N. V., priority 1987, dated 1988).

System: Loss in righting reflex induced by xylazine
Test: Loss of righting reflex test (xylazine antagonism)
Assay type: in vivo, Female Wistar strain rats
Conditions: female Wistar rats 220-270 g; test compound 60 min before observation; xylazine 20 mg/kg i.p. 30 min later; route of test compound not given
Procedure: Loss of righting reflex test Female Wistar strain rats weighing 220-270 g were used throughout the test. Sixty minutes before observations were made, the rats were treated with a test compound or with a saline solution. Thirty minutes later, all animals received an intraperitoneal injection of 20 mg/kg body weight of xylazine. […] The degree of which the righting reflex was compromised, was scored 0-3 depending on the animal's response to it being put gently on its back on a flat surface. Score 3: complete loss of righting reflexes; score 2: some righting movements occur, but these fail to result in a 180° turn of the body; score 1: righting movements do result in a 180° turn of the body, but the process takes noticeably more time than it does in normal animals; score 0: righting is effected with a speed similar to that of normal rats.

| SMILES | Loss in righting reflex induced by xylazine ED50-values (dose producing loss of righting reflex scores <3 in 50% of the tested animals) [mg/kg] |
| --- | --- |
| c1ccc2c(c1)OCC(CN1CCC(CNc3nc4cccnc4s3)CC1)O2 (stereo not drawn) [Compound 8, N-[[1-[(2,3-dihydro-1,4-benzodioxin-2-yl)methyl]-4-piperidinyl]methyl]thiazolo[5,4-b]pyridin-2-amine] | 0.08 |
| c1ccc2c(c1)OC[C@H](CN1CCC(CNc3nc4cccnc4s3)CC1)O2 [Compound 13, (-)-(S)-N-[[1[(2,3-dihydro-1,4-benzodioxin-2-yl)methyl]-4-piperidinyl]methyl]thiazolo[5,4-b]pyridin-2-amine] | 0.08 |
| Fc1ccc2nc(NCC3CCN(CC4COc5ccccc5O4)CC3)sc2c1 (stereo not drawn) [Compound 19, N-[[1-[(2,3-dihydro-1,4-benzodioxin-2-yl)methyl]-4-piperidinyl]methyl]-6-fluoro-2-benzothiazolamine] | 0.31 |
| Fc1cccc2sc(NCC3CCN(CC4COc5ccccc5O4)CC3)nc12 (stereo not drawn) [Compound 20, N-[[1-[(2,3-dihydro-1,4-benzodioxin-2-yl)methyl]-4-piperidinyl]methyl]-4-fluoro-2-benzothiazolamine] | 0.066 |
| Cc1ccc2nc(NCC3CCN(CC4COc5ccccc5O4)CC3)sc2c1 (stereo not drawn) [Compound 21, N-[[1-[(2,3-dihydro-1,4-benzodioxin-2-yl)methyl]-4-piperidinyl]methyl]-6-methyl-2-benzothiazolamine] | 0.14 |
| COc1cc2nc(NCC3CCN(CC4COc5ccccc5O4)CC3)sc2c(OC)c1OC (stereo not drawn) [Compound 26, N-[[1-[(2,3-dihydro-1,4-benzodioxin-2-yl)methyl]-4-piperidinyl]methyl]-5,6,7-trimethoxy-2-benzothiazolamine (E)-2-butenedioate(2:3)] | 0.08 |
| COc1cc2nc(NCC3CCN(CC4COc5ccccc5O4)CC3)sc2cc1OC (stereo not drawn) [Compound 27, N-[[1-[(2,3-dihydro-1,4-benzodioxin-2-yl)methyl]-4-piperidinyl]methyl]-5,6-dimethoxy-2-benzothiazolamine] | 0.16 |
| c1ccc2c(c1)OCC(CN1CCC(CNc3nc4cc5c(cc4s3)OCO5)CC1)O2 (stereo not drawn) [Compound 28, N-[[1-[(2,3-dihydro-1,4-benzodioxin-2-yl)methyl]-4-piperidinyl]methyl]-1,3-dioxolo[4,5-f]benzothiazol-6-amine] | 0.31 |
| c1ccc2c(c1)OCC(CN1CCC(CCNc3nc4ccccc4s3)CC1)O2 (stereo not drawn) [Compound 30, N-[2-[1[(2,3-dihydro-1,4-benzodioxin-2-yl)methyl]-4-piperidinyl]ethyl]-2-benzothiazolamine] | 0.31 |
| COc1cc(OC)c2sc(NCC3CCN(C[C@H]4COc5ccccc5O4)CC3)nc2c1 [Compound 34] | 0.31 |
| COc1cc2nc(NCC3CCN(CC4CCc5ccccc5O4)CC3)sc2cc1OC (stereo not drawn) [Compound 35] | 0.31 |
| Cl.Cl.c1ccc2c(c1)OCC(CN1CCC(CNc3nc4ccccc4o3)CC1)O2 (stereo not drawn) [Compound 42, N-[[1-[(2,3-dihydro-1,4-benzodioxin-2-yl)methyl]-4-piperidinyl]methyl]-2-benzoxazolamine dihydrochloride] | 0.31 |
| Cl.Cl.Oc1ccc2nc(NCC3CCN(CC4COc5ccccc5O4)CC3)sc2c1 (stereo not drawn) [Compound 57, 2-[[[1-[(2,3-dihydro-1,4-benzodioxin-2-yl)methyl]-4-piperidinyl]methyl]amino]-6-benzothiazolol dihydrochloride] | 0.31 |
| c1ccc2c(c1)OCC(CN1CCC(CNc3nc4cnccc4s3)CC1)O2 (stereo not drawn) [Compound 58, N-[[1-[(2,3-dihydro-1,4-benzodioxin-2-yl)methyl]-4-piperidinyl]methyl]thiazolo[4,5-c]pyridin-2-amine] | 0.080 |
| COc1ccc2nc(NCC3CCN(CC4COc5ccccc5O4)CC3)sc2c1 (stereo not drawn) [Compound 68, N-[[1-[(2,3-dihydro-1,4-benzodioxin-2-yl)methyl]-4-piperidinyl]methyl]-6-methoxy-2-benzothiazolamine] | 0.16 |
